Data as given in patent US20250026769A1, “PAPD5 INHIBITORS AND METHODS OF USE THEREOF” (The Children's Medical Center Corporation, priority 2021, published 2025).

The compounds below were run against T1, rPAPD5 (Homo sapiens, UniProt Q8NDF8) (assay: differential scanning fluorimetry (DSF) binding and stabilization of rPAPD5). Conditions: 1 μM test compound (Table 2a); read-out: ΔTm at 1 μM.
T1 construct: made in house
T1 sequence (Q8NDF8 68-698 isoform Q8NDF8-5 limits assumed): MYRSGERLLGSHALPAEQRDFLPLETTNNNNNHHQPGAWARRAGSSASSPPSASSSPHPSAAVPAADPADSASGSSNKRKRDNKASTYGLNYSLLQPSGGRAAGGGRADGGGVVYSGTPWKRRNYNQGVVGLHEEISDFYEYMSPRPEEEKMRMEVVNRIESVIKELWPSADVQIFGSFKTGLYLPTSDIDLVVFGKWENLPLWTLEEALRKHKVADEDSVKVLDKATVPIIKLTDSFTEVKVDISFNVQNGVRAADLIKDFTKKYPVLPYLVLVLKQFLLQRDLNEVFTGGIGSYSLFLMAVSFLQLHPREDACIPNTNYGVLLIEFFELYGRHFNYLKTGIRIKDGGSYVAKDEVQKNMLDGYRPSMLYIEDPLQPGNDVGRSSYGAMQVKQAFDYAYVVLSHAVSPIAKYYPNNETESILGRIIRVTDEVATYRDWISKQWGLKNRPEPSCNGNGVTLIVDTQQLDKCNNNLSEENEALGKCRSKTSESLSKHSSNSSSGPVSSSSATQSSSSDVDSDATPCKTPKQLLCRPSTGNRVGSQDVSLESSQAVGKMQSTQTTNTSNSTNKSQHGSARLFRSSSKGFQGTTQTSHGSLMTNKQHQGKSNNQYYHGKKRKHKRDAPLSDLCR
Protocol: Binding and stabilization of rPAPD5 by test compounds was determined using differential scanning fluorimetry (DSF). DSF assays were performed to determine protein melting temperature using an indicator dye SYPRO orange (Thermo Fisher Scientific, S6651) diluted 1:5000 in […] of buffer containing […], […] (Jena Biosciences), 25 mM Tris-HCl, 5 mM MgCl2, 50 mM KCl. […] DMSO was used as a negative control. Each curve was an average of three measurements and Thermal Shift software (Thermo Fisher Scientific, 4466038) was used for analysis. […] The change in melting temperature (ΔTm) is in reference to the DMSO control. Referring to Table 2, “+” refers to ΔTm values below 1° C., “++” refers to ΔTm values from 1 to 5° C., and “+++” refers to ΔTm values above 5° C.
In the case of `O=C(O)c1cc(Cl)ccc1Nc1c(S(=O)(=O)N2CCS(=O)(=O)CC2)cnc2ccc(Cl)cc12` [Compound 429A, 5-chloro-2-[[6-chloro-3-[(1,1-dioxo-1,4-thiazinan-4-yl)sulfonyl]-4-quinolyl]amino]benzoic acid], the ΔTm at 1 µM is reported as over 5 °C.

Same assay, conditions: 10 μM test compound (Table 2a); read-out: ΔTm at 10 μM
`O=C(O)c1cc(Cl)ccc1Nc1c(S(=O)(=O)N2CCS(=O)(=O)CC2)cnc2ccc(Cl)cc12` [Compound 429A, 5-chloro-2-[[6-chloro-3-[(1,1-dioxo-1,4-thiazinan-4-yl)sulfonyl]-4-quinolyl]amino]benzoic acid] was tested, and the ΔTm at 10 µM was over 5 °C.

Same assay, conditions: 10 μM test compound; shift vs DMSO control; read-out: ΔTm (Table 2, starred: the compound was tested at 10 μM)
Compound `Cc1cc(OCc2ccccc2)ccc1-c1ccc2ncc(S(=O)(=O)N3CCOCC3)c(Nc3ccccc3C(=O)O)c2c1` [Compound 176A, 2-[[6-(4-benzyloxy-2-methyl-phenyl)-3-morpholinosulfonyl-4-quinolyl]amino]benzoic acid] has a ΔTm at 10 µM of under 1 °C.

Same assay, conditions: 100 μM test compound; shift vs DMSO control; read-out: ΔTm at 100 μM
In the case of `O=C(O)c1ccccc1Nc1c(S(=O)(=O)N2CCOCC2)cnc2ccc(NC3CCC(F)(F)CC3)cc12` [Compound 238A, 2-[[6-[(4,4-difluorocyclohexyl)amino]-3-morpholinosulfonyl-4-quinolyl]amino]benzoic acid], the ΔTm at 100 µM is reported as 1 to 5 °C.
Work on `O=C(O)c1ccccc1Nc1c(S(=O)(=O)N2CCOCC2)cnc2ccc(-c3ccc4c(c3)OCO4)cc12` [Compound 175A, 2-[[6-(1,3-benzodioxol-5-yl)-3-morpholinosulfonyl-4-quinolyl]amino]benzoic acid] yielded a ΔTm at 100 µM of over 5 °C.
In the case of `O=C(O)c1cc(Cl)ccc1Nc1c(S(=O)(=O)N2CCS(=O)(=O)CC2)cnc2ccc(Cl)cc12` [Compound 429A, 5-chloro-2-[[6-chloro-3-[(1,1-dioxo-1,4-thiazinan-4-yl)sulfonyl]-4-quinolyl]amino]benzoic acid], the ΔTm at 100 µM is reported as over 5 °C.
Work on `CCN(CC)C(=O)c1ccc(-c2ccc3ncc(S(=O)(=O)N4CCOCC4)c(Nc4ccccc4C(=O)O)c3c2)cc1` [Compound 174A, 2-[[6-[4-(diethylcarbamoyl)phenyl]-3-morpholinosulfonyl-4-quinolyl]amino]benzoic acid] yielded a ΔTm at 100 µM of under 1 °C.
`CS(=O)(=O)Nc1ccc(-c2ccc3ncc(S(=O)(=O)N4CCOCC4)c(Nc4ccccc4C(=O)O)c3c2)cc1` [Compound 179A, 2-[[6-[4-(methanesulfonamido)phenyl]-3-morpholinosulfonyl-4-quinolyl]amino]benzoic acid] was tested, and the ΔTm at 100 µM was 1 to 5 °C.
`O=C(O)c1ccccc1Nc1c(S(=O)(=O)N2CCOCC2)cnc2ccc(-c3cncc4[nH]ccc34)cc12` [Compound 160A, 2-[[3-morpholinosulfonyl-6-(1H-pyrrolo[2,3-c]pyridin-4-yl)-4-quinolyl]amino]benzoic acid] gave a ΔTm at 100 µM of over 5 °C.
`O=C(O)c1ccccc1Nc1c(S(=O)(=O)N2CCOCC2)cnc2ccc(-c3cc4cc(Cl)ccc4s3)cc12` [Compound 146A-C1] gave a ΔTm at 100 µM of under 0 °C.
`CNC(=O)c1ccc(-c2ccc3ncc(S(=O)(=O)N4CCOCC4)c(Nc4ccccc4C(=O)O)c3c2)cn1` [Compound 167A, 2-[[6-[6-(methylcarbamoyl)-3-pyridyl]-3-morpholinosulfonyl-4-quinolyl]amino]benzoic acid] gave a ΔTm at 100 µM of under 1 °C.
`O=C(O)c1ccccc1Nc1c(S(=O)(=O)N2CCOCC2)cnc2ccc(-c3ccc(N4CCCC4)nc3)cc12` [Compound 157A, 2-[[3-morpholinosulfonyl-6-(6-pyrrolidin-1-yl-3-pyridyl)-4-quinolyl]amino]benzoic acid] was tested, and the ΔTm at 100 µM was under 1 °C.
In the case of `COc1ccc(C(=O)O)c(Nc2c(S(=O)(=O)N3CCOCC3)cnc3ccc(Cl)cc23)c1` [Compound 277A, 2-[(6-chloro-3-morpholinosulfonyl-4-quinolyl)amino]-4-methoxy-benzoic acid], the ΔTm at 100 µM is reported as over 5 °C.
Work on `O=S(=O)(c1cnc2ccc(Cl)cc2c1Nc1ccccc1B(O)O)N1CCOCC1` [Compound 292A, [2-[(6-chloro-3-morpholinosulfonyl-4-quinolyl)amino]phenyl]boronic acid] yielded a ΔTm at 100 µM of 1 to 5 °C.
Compound `O=C(O)c1c(O)cccc1Nc1c(S(=O)(=O)N2CCC(F)(F)CC2)cnc2ccc(OC(F)(F)F)cc12` [Compound 133A] has a ΔTm at 100 µM of over 5 °C.
With `O=C(O)c1ccccc1Nc1c(NC2CCNCC2)cnc2ccc(Cl)cc12` [Compound 186A, 2-[[6-chloro-3-(4-piperidylamino)-4-quinolyl]amino]benzoic acid] the ΔTm at 100 µM was 1 to 5 °C.
In the case of `Cn1cc(-c2ccc3ncc(S(=O)(=O)N4CCOCC4)c(Nc4ccccc4C(=O)O)c3c2)ccc1=O` [Compound 150A], the ΔTm at 100 µM is reported as over 5 °C.
In the case of `O=C(O)c1ccccc1Nc1c(S(=O)(=O)N2CCOCC2)cnc2ccc(-c3ccnc(N4CCNCC4)c3)cc12` [Compound 169A, 2-[[3-morpholinosulfonyl-6-(2-piperazin-1-yl-4-pyridyl)-4-quinolyl]amino]benzoic acid], the ΔTm at 100 µM is reported as under 1 °C.
`O=C(O)c1cc(Br)ccc1Nc1c(S(=O)(=O)N2CCOCC2)cnc2ccc(Cl)cc12` [Compound 268A, 5-bromo-2-[(6-chloro-3-morpholinosulfonyl-4-quinolyl)amino]benzoic acid] showed a ΔTm at 100 µM of under 1 °C.
`O=C(O)c1c(Nc2c(S(=O)(=O)N3CCOCC3)cnc3ccc(Cl)cc23)cccc1N1CCC1` [Compound 87A-Cl] showed a ΔTm at 100 µM of 1 to 5 °C.
`O=C(O)c1ccccc1Nc1c(NC2CCS(=O)(=O)CC2)cnc2ccc(Cl)cc12` [Compound 188A, 2-[[6-chloro-3-[(1,1-dioxothian-4-yl)amino]-4-quinolyl]amino]benzoic acid] was tested, and the ΔTm at 100 µM was over 5 °C.
With `O=C(O)c1ccccc1Nc1c(Br)cnc2ccc(Cl)cc12` [Compound 232A, 2-[(3-bromo-6-chloro-4-quinolyl)amino]benzoic acid] the ΔTm at 100 µM was over 5 °C.
In the case of `O=C(O)c1ccc(O)cc1Nc1c(S(=O)(=O)N2CCOCC2)cnc2ccc(Cl)cc12` [Compound 273A, 2-[(6-chloro-3-morpholinosulfonyl-4-quinolyl)amino]-4-hydroxy-benzoic acid], the ΔTm at 100 µM is reported as 1 to 5 °C.
`CN(C)c1ncc(-c2ccc3ncc(S(=O)(=O)N4CCOCC4)c(Nc4ccccc4C(=O)O)c3c2)cn1` [Compound 142A] was tested, and the ΔTm at 100 µM was 1 to 5 °C.
`NS(=O)(=O)c1ccc(NS(=O)(=O)c2cnc3ccc(Cl)cc3c2Nc2ccccc2C(=O)O)cc1` [Compound 231A, 2-[[6-chloro-3-[(4-sulfamoylphenyl)sulfamoyl]-4-quinolyl]amino]benzoic acid] was tested, and the ΔTm at 100 µM was over 5 °C.
`Cc1ccc(-c2ccc3ncc(S(=O)(=O)N4CCOCC4)c(Nc4ccccc4C(=O)O)c3c2)s1` [Compound 136A] showed a ΔTm at 100 µM of 1 to 5 °C.
`O=C(O)c1ccccc1Nc1c(S(=O)(=O)N2CCC(F)(F)CC2)cnc2ccc(OC(F)(F)F)cc12` [Compound 132A] was tested, and the ΔTm at 100 µM was over 5 °C.
In the case of `O=C(O)c1cccc(F)c1Nc1c(S(=O)(=O)N2CCOCC2)cnc2ccc(Cl)cc12` [Compound 281A, 2-[(6-chloro-3-morpholinosulfonyl-4-quinolyl)amino]-3-fluoro-benzoic acid], the ΔTm at 100 µM is reported as over 5 °C.
`O=C(O)c1c(Nc2c(S(=O)(=O)N3CCOCC3)cnc3ccc(Cl)cc23)cccc1C(O)(O)C(F)(F)F` [Compound 127A-1] showed a ΔTm at 100 µM of over 5 °C.
`O=C(O)c1cc(C(O)C(F)(F)F)ccc1Nc1c(S(=O)(=O)N2CCOCC2)cnc2ccc(Cl)cc12` (stereo not drawn) [Compound 293A, 2-[(6-chloro-3-morpholinosulfonyl-4-quinolyl)amino]-5-(2,2,2-trifluoro-1-hydroxy-ethyl)benzoic acid] gave a ΔTm at 100 µM of 1 to 5 °C.
In the case of `NS(=O)(=O)c1ccc(Nc2c(S(=O)(=O)N3CCOCC3)cnc3ccc(Cl)cc23)c(C(=O)O)c1` [Compound 290A, 2-[(6-chloro-3-morpholinosulfonyl-4-quinolyl)amino]-5-sulfamoyl-benzoic acid], the ΔTm at 100 µM is reported as under 1 °C.
`N=c1cc(C(F)(F)F)c(-c2ccc3ncc(S(=O)(=O)N4CCOCC4)c(Nc4ccccc4C(=O)O)c3c2)c[nH]1` [Compound 143A] was tested, and the ΔTm at 100 µM was 1 to 5 °C.
In the case of `O=C(O)c1c(F)cccc1Nc1c(S(=O)(=O)N2CCOCC2)cnc2ccc(Cl)cc12` [Compound 125A], the ΔTm at 100 µM is reported as 1 to 5 °C.
In the case of `O=C(O)c1ccccc1Nc1c(S(=O)(=O)NC2CCOCC2)cnc2ccc(Cl)cc12` [Compound 216A, 2-[[6-chloro-3-(tetrahydropyran-4-ylsulfamoyl)-4-quinolyl]amino]benzoic acid], the ΔTm at 100 µM is reported as over 5 °C.
Work on `O=C(O)c1ccccc1Nc1c(S(=O)(=O)N2CCOCC2)cnc2ccc(O)cc12` [Compound 322A, 2-[(6-hydroxy-3-morpholinosulfonyl-4-quinolyl)amino]benzoic acid] yielded a ΔTm at 100 µM of over 5 °C.
In the case of `O=C(O)c1cccc(Br)c1Nc1c(S(=O)(=O)N2CCOCC2)cnc2ccc(Cl)cc12` [Compound 282A, 3-bromo-2-[(6-chloro-3-morpholinosulfonyl-4-quinolyl)amino]benzoic acid], the ΔTm at 100 µM is reported as over 5 °C.
Compound `O=C(O)c1ccccc1Nc1c(C2CCS(=O)(=O)CC2)cnc2ccc(Cl)cc12` [Compound 208A, 2-[[6-chloro-3-(1,1-dioxothian-4-yl)-4-quinolyl]amino]benzoic acid] has a ΔTm at 100 µM of over 5 °C.
With `Cc1cc(OC(C)C)ncc1-c1ccc2ncc(S(=O)(=O)N3CCOCC3)c(Nc3ccccc3C(=O)O)c2c1` [Compound 161A, 2-[[6-(6-isopropoxy-4-methyl-3-pyridyl)-3-morpholinosulfonyl-4-quinolyl]amino] benzoic acid] the ΔTm at 100 µM was under 1 °C.
`O=C(O)c1ccccc1Nc1c(S(=O)(=O)NC2CCC(F)(F)CC2)cnc2ccc(Cl)cc12` [Compound 217A, 2-[[6-chloro-3-[(4,4-difluorocyclohexyl)sulfamoyl]-4-quinolyl]amino]benzoic acid] showed a ΔTm at 100 µM of over 5 °C.
`CC(C)c1ccc(Nc2c(S(=O)(=O)N3CCOCC3)cnc3ccc(Cl)cc23)c(C(=O)O)c1` [Compound 320A, 2-[(6-chloro-3-morpholinosulfonyl-4-quinolyl)amino]-5-isopropyl-benzoic acid] showed a ΔTm at 100 µM of 1 to 5 °C.
`O=C(O)c1ccccc1Nc1c(S(=O)(=O)N2CCOCC2)cnc2ccc(OC(F)(F)F)cc12` [Compound 131A] was tested, and the ΔTm at 100 µM was over 5 °C.

Same assay, conditions: read-out: ΔTm at 100 μM
`O=C(O)c1ccccc1Sc1c(S(=O)(=O)N2CCOCC2)cnc2ccc(Cl)cc12` [Compound 328A] showed a ΔTm at 100 µM of 1 to 5 °C.
